From patent US20240415914A1, “Water Dispersible Cannabinoid Compositions” (priority 2021, published 2024)
Read-outs that look alike come from different tables or passages of the source.

Legend:
[1] = type: physicochemical; conditions: stored at room temperature (21-25° C.)
Description: At each time period, 0.05 g of powder was dissolved in 10 ml-15 of ethanol, diluted to fall within the analytical range, and injected into the LCMSMS for analysis.

[2] = Stability of cannabinoid and Vitamin E components of Beverage 2 (AB Red) stored at 8° C. and 21-25° C., LCMSMS over 570 days
Description: The LCMSMS was calibrated for 0-50 ng/ml cannabinoids with the same resin material used in the preparation of the concentrates. At each time period, 100 μml of beverage was diluted with 10 ml of methanol and injected into the LCMSMS for analysis.

CCCCCc1cc(O)c2c(c1)OC1(C)CCC3C1C2C3(C)C (stereo not shown) [CBL, cannabicyclol]
0.050 mg/g powder: Stability in Powder Concentrate (content by LCMSMS) ([1]; day 0) | Stability in Powder Concentrate (content by LCMSMS) ([1]; day 3) | Stability in Powder Concentrate (content by LCMSMS) ([1]; day 8) | Stability in Powder Concentrate (content by LCMSMS) ([1]; day 9) | Stability in Powder Concentrate (content by LCMSMS) ([1]; day 10) | Stability in Powder Concentrate (content by LCMSMS) ([1]; day 24) | Stability in Powder Concentrate (content by LCMSMS) ([1]; day 25) | Stability in Powder Concentrate (content by LCMSMS) ([1]; day 60) | Stability in Powder Concentrate (content by LCMSMS) ([1]; day 90) | Stability in Powder Concentrate (content by LCMSMS) ([1]; day 150) | Stability in Powder Concentrate (content by LCMSMS) ([1]; day 300) | Stability in Powder Concentrate (content by LCMSMS) ([1]; day 360) | Stability in Powder Concentrate (content by LCMSMS) ([1]; day 420) | Stability in Powder Concentrate (content by LCMSMS) ([1]; day 510) | Stability in Powder Concentrate (content by LCMSMS) ([1]; day 570)
0.492 µg/mL: Stability of Cannabinoids in AB Red ([2]; 8° C., 450 days)
0.513 µg/mL: Stability of Cannabinoids in AB Red ([2]; 8° C., 18 days)
0.470 µg/mL: Stability of Cannabinoids in AB Red ([2]; 8° C., 540 days)
0.510 µg/mL: Stability of Cannabinoids in AB Red ([2]; 8° C., 0 days) | Stability of Cannabinoids in AB Red ([2]; 8° C., 15 days) | Stability of Cannabinoids in AB Red ([2]; 8° C., 19 days) | Stability of Cannabinoids in AB Red ([2]; 8° C., 25 days)
0.502 µg/mL: Stability of Cannabinoids in AB Red ([2]; 8° C., 16 days) | Stability of Cannabinoids in AB Red ([2]; 8° C., 23 days) | Stability of Cannabinoids in AB Red ([2]; 8° C., 26 days)
0.491 µg/mL: Stability of Cannabinoids in AB Red ([2]; 8° C., 60 days) | Stability of Cannabinoids in AB Red ([2]; 8° C., 390 days)
0.469 µg/mL: Stability of Cannabinoids in AB Red ([2]; 8° C., 570 days)
0.488 µg/mL: Stability of Cannabinoids in AB Red ([2]; 8° C., 120 days)
0.499 µg/mL: Stability of Cannabinoids in AB Red ([2]; 8° C., 3 days) | Stability of Cannabinoids in AB Red ([2]; 8° C., 12 days)
0.490 µg/mL: Stability of Cannabinoids in AB Red ([2]; 8° C., 210 days) | Stability of Cannabinoids in AB Red ([2]; 8° C., 240 days)
0.052 mg/g powder: Stability in Powder Concentrate (content by LCMSMS) ([1]; day 5) | Stability in Powder Concentrate (content by LCMSMS) ([1]; day 11) | Stability in Powder Concentrate (content by LCMSMS) ([1]; day 12) | Stability in Powder Concentrate (content by LCMSMS) ([1]; day 18) | Stability in Powder Concentrate (content by LCMSMS) ([1]; day 19) | Stability in Powder Concentrate (content by LCMSMS) ([1]; day 210) | Stability in Powder Concentrate (content by LCMSMS) ([1]; day 390) | Stability in Powder Concentrate (content by LCMSMS) ([1]; day 450)
0.051 mg/g powder: Stability in Powder Concentrate (content by LCMSMS) ([1]; day 1) | Stability in Powder Concentrate (content by LCMSMS) ([1]; day 22) | Stability in Powder Concentrate (content by LCMSMS) ([1]; day 23) | Stability in Powder Concentrate (content by LCMSMS) ([1]; day 26) | Stability in Powder Concentrate (content by LCMSMS) ([1]; day 30) | Stability in Powder Concentrate (content by LCMSMS) ([1]; day 270) | Stability in Powder Concentrate (content by LCMSMS) ([1]; day 480)
0.496 µg/mL: Stability of Cannabinoids in AB Red ([2]; 8° C., 8 days) | Stability of Cannabinoids in AB Red ([2]; 8° C., 9 days)
0.487 µg/mL: Stability of Cannabinoids in AB Red ([2]; 8° C., 480 days)
0.501 µg/mL: Stability of Cannabinoids in AB Red ([2]; 8° C., 5 days) | Stability of Cannabinoids in AB Red ([2]; 8° C., 11 days) | Stability of Cannabinoids in AB Red ([2]; 8° C., 90 days) | Stability of Cannabinoids in AB Red ([2]; 8° C., 150 days)
0.489 µg/mL: Stability of Cannabinoids in AB Red ([2]; 8° C., 300 days)
0.511 µg/mL: Stability of Cannabinoids in AB Red ([2]; 8° C., 29 days) | Stability of Cannabinoids in AB Red ([2]; 8° C., 30 days)
0.50 µg/mL: Stability of Cannabinoids in AB Red ([2]; 21-25° C., 1 days) | Stability of Cannabinoids in AB Red ([2]; 21-25° C., 2 days) | Stability of Cannabinoids in AB Red ([2]; 21-25° C., 3 days) | Stability of Cannabinoids in AB Red ([2]; 21-25° C., 8 days) | Stability of Cannabinoids in AB Red ([2]; 21-25° C., 10 days) | Stability of Cannabinoids in AB Red ([2]; 21-25° C., 11 days) | Stability of Cannabinoids in AB Red ([2]; 21-25° C., 12 days) | Stability of Cannabinoids in AB Red ([2]; 21-25° C., 15 days) | Stability of Cannabinoids in AB Red ([2]; 21-25° C., 18 days) | Stability of Cannabinoids in AB Red ([2]; 21-25° C., 24 days) | Stability of Cannabinoids in AB Red ([2]; 21-25° C., 60 days) | Stability of Cannabinoids in AB Red ([2]; 21-25° C., 120 days) | Stability of Cannabinoids in AB Red ([2]; 21-25° C., 180 days) | Stability of Cannabinoids in AB Red ([2]; 21-25° C., 300 days) | Stability of Cannabinoids in AB Red ([2]; 21-25° C., 330 days)
0.512 µg/mL: Stability of Cannabinoids in AB Red ([2]; 8° C., 1 days)
0.49 µg/mL: Stability of Cannabinoids in AB Red ([2]; 21-25° C., 19 days) | Stability of Cannabinoids in AB Red ([2]; 21-25° C., 22 days) | Stability of Cannabinoids in AB Red ([2]; 21-25° C., 29 days) | Stability of Cannabinoids in AB Red ([2]; 21-25° C., 90 days) | Stability of Cannabinoids in AB Red ([2]; 21-25° C., 150 days) | Stability of Cannabinoids in AB Red ([2]; 21-25° C., 210 days) | Stability of Cannabinoids in AB Red ([2]; 21-25° C., 240 days) | Stability of Cannabinoids in AB Red ([2]; 21-25° C., 270 days) | Stability of Cannabinoids in AB Red ([2]; 21-25° C., 390 days) | Stability of Cannabinoids in AB Red ([2]; 21-25° C., 450 days)
0.468 µg/mL: Stability of Cannabinoids in AB Red ([2]; 8° C., 510 days)
0.506 µg/mL: Stability of Cannabinoids in AB Red ([2]; 8° C., 180 days)
0.504 µg/mL: Stability of Cannabinoids in AB Red ([2]; 8° C., 270 days)
0.514 µg/mL: Stability of Cannabinoids in AB Red ([2]; 8° C., 17 days)
0.494 µg/mL: Stability of Cannabinoids in AB Red ([2]; 8° C., 420 days)
0.47 µg/mL: Stability of Cannabinoids in AB Red ([2]; 21-25° C., 510 days) | Stability of Cannabinoids in AB Red ([2]; 21-25° C., 540 days) | Stability of Cannabinoids in AB Red ([2]; 21-25° C., 570 days)
0.51 µg/mL: Stability of Cannabinoids in AB Red ([2]; 21-25° C., 0 days) | Stability of Cannabinoids in AB Red ([2]; 21-25° C., 5 days) | Stability of Cannabinoids in AB Red ([2]; 21-25° C., 9 days) | Stability of Cannabinoids in AB Red ([2]; 21-25° C., 16 days) | Stability of Cannabinoids in AB Red ([2]; 21-25° C., 17 days) | Stability of Cannabinoids in AB Red ([2]; 21-25° C., 23 days) | Stability of Cannabinoids in AB Red ([2]; 21-25° C., 25 days) | Stability of Cannabinoids in AB Red ([2]; 21-25° C., 26 days) | Stability of Cannabinoids in AB Red ([2]; 21-25° C., 30 days)
0.48 µg/mL: Stability of Cannabinoids in AB Red ([2]; 21-25° C., 420 days) | Stability of Cannabinoids in AB Red ([2]; 21-25° C., 480 days)
0.495 µg/mL: Stability of Cannabinoids in AB Red ([2]; 8° C., 22 days)
0.508 µg/mL: Stability of Cannabinoids in AB Red ([2]; 8° C., 2 days) | Stability of Cannabinoids in AB Red ([2]; 8° C., 24 days)
0.049 mg/g powder: Stability in Powder Concentrate (content by LCMSMS) ([1]; day 2) | Stability in Powder Concentrate (content by LCMSMS) ([1]; day 16) | Stability in Powder Concentrate (content by LCMSMS) ([1]; day 17) | Stability in Powder Concentrate (content by LCMSMS) ([1]; day 180) | Stability in Powder Concentrate (content by LCMSMS) ([1]; day 240) | Stability in Powder Concentrate (content by LCMSMS) ([1]; day 330)
0.505 µg/mL: Stability of Cannabinoids in AB Red ([2]; 8° C., 10 days) | Stability of Cannabinoids in AB Red ([2]; 8° C., 330 days)
0.048 mg/g powder: Stability in Powder Concentrate (content by LCMSMS) ([1]; day 15) | Stability in Powder Concentrate (content by LCMSMS) ([1]; day 29) | Stability in Powder Concentrate (content by LCMSMS) ([1]; day 120) | Stability in Powder Concentrate (content by LCMSMS) ([1]; day 540)
